Assay results from patent publication US20260374773A1, “MULTI-CYCLIC IRAK AND FLT3 INHIBITING COMPOUNDS AND USES THEREOF” (CHILDREN'S HOSPITAL MEDICAL CENTER, priority 2022, published 2026).

Molecular target: T1, FLT3 D835Y (Homo sapiens, UniProt P36888, D835Y)
T1 sequence (P36888 27-993 D835Y): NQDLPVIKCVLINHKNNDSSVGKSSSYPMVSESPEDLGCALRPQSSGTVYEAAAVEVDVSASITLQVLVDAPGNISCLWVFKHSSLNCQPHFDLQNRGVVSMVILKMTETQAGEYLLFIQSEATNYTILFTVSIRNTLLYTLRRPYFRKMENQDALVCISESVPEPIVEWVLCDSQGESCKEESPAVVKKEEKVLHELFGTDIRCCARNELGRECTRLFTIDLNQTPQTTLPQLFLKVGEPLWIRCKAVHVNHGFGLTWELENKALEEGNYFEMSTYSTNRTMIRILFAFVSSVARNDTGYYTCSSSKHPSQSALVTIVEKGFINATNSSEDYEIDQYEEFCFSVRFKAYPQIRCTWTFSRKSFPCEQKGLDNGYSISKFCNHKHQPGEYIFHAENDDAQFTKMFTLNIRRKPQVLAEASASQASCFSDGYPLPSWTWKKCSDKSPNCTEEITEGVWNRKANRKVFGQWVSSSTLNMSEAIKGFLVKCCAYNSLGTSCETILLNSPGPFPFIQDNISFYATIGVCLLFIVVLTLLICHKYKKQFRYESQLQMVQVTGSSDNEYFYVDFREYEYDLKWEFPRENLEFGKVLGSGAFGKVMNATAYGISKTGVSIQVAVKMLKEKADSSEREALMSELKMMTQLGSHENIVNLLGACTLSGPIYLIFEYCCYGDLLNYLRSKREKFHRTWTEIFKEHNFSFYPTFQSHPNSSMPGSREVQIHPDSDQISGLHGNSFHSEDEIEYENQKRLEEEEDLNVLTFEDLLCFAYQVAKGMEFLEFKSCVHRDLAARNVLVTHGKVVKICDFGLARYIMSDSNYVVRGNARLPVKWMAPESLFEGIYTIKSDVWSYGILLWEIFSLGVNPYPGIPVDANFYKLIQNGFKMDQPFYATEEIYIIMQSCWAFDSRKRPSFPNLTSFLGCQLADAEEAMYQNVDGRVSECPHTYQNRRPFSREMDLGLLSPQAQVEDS
Assay: DiscoverX KINOMEscan active site-directed competition binding, FLT3 D835Y
Conditions: no ATP
Text: (§1) Kinase binding data were obtained for various exemplary compounds prepared according to Examples 1-8 using the DiscoverX KINOMEscan® active site-directed competition binding site-directed assay protocol described below. […] As a result, the data report thermodynamic interaction affinities (Kd values), rather than IC50 values that are dependent on ATP concentrations. The assay uses a DNA-tagged version of the protein kinase, and an immobilized ligand bound to a solid support. Compounds that directly or indirectly prevent kinase binding to the immobilized ligand reduce the amount of kinase captured on the solid support, which is detected using an ultra-sensitive qPCR method. Affinity constants reported from the assay have been reported to be independent of the immobilized ligand used that is coupled to the solid support (See supplemental information in Fabian, M. A. et. al., (2005) Nat. Biotechnol. 23, 329-336; Wodicka, L. M. et. al., (2010) Chem. Biol. 17, 1241-1249.)
Kinase-tagged T7 phage strains were prepared in an E. coli host derived from the BL21 strain. E. coli were grown to log-phase and infected with T7 phage and incubated with shaking at 32 °C until lysis. The lysates were centrifuged and filtered to remove cell debris. The remaining kinases were produced in HEK-293 cells and subsequently tagged with DNA for qPCR detection. Streptavidin-coated magnetic beads were treated with biotinylated small molecule ligands for 30 minutes at room temperature to generate affinity resins for kinase assays. The liganded beads were blocked with excess biotin and washed with blocking buffer (SeaBlock (Pierce), 1% BSA, 0.05% Tween 20, 1 mM DTT) to remove unbound ligand and to reduce non-specific binding. […] Test compounds were prepared as 111x stocks in 100% DMSO. Kds were determined using an 11-point 3-fold compound dilution series with three DMSO control points. All compounds for Kd measurements are distributed by acoustic transfer (non-contact dispensing) in 100% DMSO. The compounds were then diluted directly into the assays such that the final concentration of DMSO was 0.9%. All reactions were performed in polypropylene 384-well plates. Each was a final volume of 0.02 mL. The assay plates were incubated at room temperature with shaking for 1 hour and the affinity beads were washed with wash buffer (1×PBS, 0.05% Tween 20). The beads were then re-suspended in elution buffer (1×PBS, 0.05% Tween 20, 0.5 μM nonbiotinylated affinity ligand) and incubated at room temperature with shaking for 30 minutes. The kinase concentration in the eluates was measured by qPCR. Binding constants (Kds) were calculated with a standard dose-response curve using the Hill equation. The Hill Slope was set to −1. Curves were fitted using a non-linear least square fit with the Levenberg-Marquardt algorithm.
as §1, with “9-12” for “1-8”
Kinase-tagged T7 phage strains were prepared in an E. coli host derived from the BL21 strain. […]

In the case of COc1cn2ncc(-c3nc(N[C@H]4CNCC[C@@H]4F)ncc3F)c2nc1C(C)(C)O [Compound 6a, 2-(3-(5-fluoro-2-(((3S,4S)-4-fluoropiperidin-3-yl)amino)pyrimidin-4-yl)-6-methoxypyrazolo[1,5-a]pyrimidin-5-yl)propan-2-ol], the Kd (Table 18) is reported as under 0.17 nM.
In the case of COc1cn2ncc(-c3nc(N[C@@H]4CCCNC4)ncc3F)c2nc1C1CC1 [Compound 14a, (R)-4-(5-cyclopropyl-6-methoxypyrazolo[1,5-a]pyrimidin-3-yl)-5-fluoro-N-(piperidin-3-yl)pyrimidin-2-amine], the Kd (Table 18) is reported as under 0.17 nM.
COc1cn2ncc(-c3ccnc(N[C@H]4CNCC[C@@H]4F)n3)c2nc1C1CC1 [Compound 7a, 4-(5-cyclopropyl-6-methoxypyrazolo[1,5-a]pyrimidin-3-yl)-N-((3S,4S)-4-fluoropiperidin-3-yl)pyrimidin-2-amine] gave a Kd (Table 18) of 0.79 nM.
COc1cn2ncc(-c3nc(N[C@H]4CNCC[C@@H]4F)c(C#N)cc3F)c2nc1C(C)(C)O [Compound 10, 5-fluoro-2-(((3S,4S)-4-fluoropiperidin-3-yl)amino)-6-(5-(2-hydroxypropan-2-yl)-6-methoxypyrazolo[1,5-a]pyrimidin-3-yl)nicotinonitrile] was tested, and the Kd (Table 12) was 0.21 nM.
Compound COc1cn2ncc(-c3cncc(N[C@H]4CNCC[C@@H]4F)n3)c2nc1C1CC1 [Compound 12a, 6-(5-cyclopropyl-6-methoxypyrazolo[1,5-a]pyrimidin-3-yl)-N-((3S,4S)-4-fluoropiperidin-3-yl)pyrazin-2-amine] has a Kd (Table 18) of 0.62 nM.
Work on COc1cn2ncc(-c3nc(N[C@H]4CNCC[C@@H]4F)c(F)cc3F)c2nc1C(C)(C)O [Compound 13, 2-(3-(3,5-difluoro-6-(((3S,4S)-4-fluoropiperidin-3-yl)amino)pyridin-2-yl)-6-methoxypyrazolo[1,5-a]pyrimidin-5-yl)propan-2-ol] yielded a Kd (Table 12) of under 0.17 nM.
In the case of COc1cn2ncc(-c3nc(N[C@H]4CNCC[C@@H]4F)c(C#N)cc3F)c2nc1C1CC1 [Compound 7, 6-(5-cyclopropyl-6-methoxypyrazolo[1,5-a]pyrimidin-3-yl)-5-fluoro-2-(((3S,4S)-4-fluoropiperidin-3-yl)amino)nicotinonitrile], the Kd (Table 12) is reported as 0.42 nM.
Compound COc1cn2ncc(-c3nc(N[C@H]4CNCC[C@@H]4F)ncc3F)c2nc1C1CC1 [Compound 15a, 4-(5-cyclopropyl-6-methoxypyrazolo[1,5-a]pyrimidin-3-yl)-5-fluoro-N-((3S,4S)-4-fluoropiperidin-3-yl)pyrimidin-2-amine] has a Kd (Table 18) of 0.34 nM.
